# Assays:
# human platelets [1] = assay: Thromboxane biosynthesis (TXB2 EIA in platelet supernatant); assay type: cell-based; settings: NG or HG; 1 μg/mL collagen; U73122 5 μmol/L, SB239063 50 μmol/L, SQ29548 10 μmol/L
# Description: Platelets were sedimented by centrifugation at 2,500 g for 5 min, and the supernatant was harvested for the measurement of TX levels. Since TXA2 is rapidly hydrolyzed into TXB2, the level of TXB2 was measured using TXB2 EIA kit according to the manufacturer's ELISA instructions (Cayman Chemical).
# human platelets [2] = assay: Collagen-induced platelet aggregation (light transmission, Lumi-aggregometer); assay type: cell-based; settings: NG or HG 90 min; 1 μg/mL collagen; SB239063 50 μmol/L, U73122 5 μmol/L, quercetin 10 μmol/L, SQ29548 10 μmol/L, NAC, apocynin 100 μmol/L
# Description: Venous blood was drawn from volunteers at Yale University Medical School, free from medication known to interfere with platelet function. […] PRP was obtained by centrifugation of blood at 250 g at 37° C. for 15 min and the platelet count in the PRP was estimated by an automated cell counter.
# Platelet-poor plasma (PPP) was obtained by centrifugation of the rest of the blood at 1400 g at 25° C. for 10 min. The PRP was adjusted with PPP to 2−3×10^8 platelets/mL suspensions.
# Platelet aggregation was monitored at 37° C. with constant stirring (1,200 rpm) in a dual-channel Lumi-aggregometer (Chrono-Log model 700). Platelet aggregation was measured as the increase in light transmission for 10 min, starting with the addition of 0.5 μL of 1 mg/mL collagen (Chrono-Log) as a proaggregatory stimulus. For measuring ADP-stimulated platelet aggregation, 1 μM ADP (Chrono-Log) was used. The maximum aggregation was expressed as percentage of maximum light transmission, with non-stimulated platelet-rich plasma being 0% and platelet-poor plasma 100%.
# washed platelet = assay: Aggregometry of washed platelets incubated with AR inhibitors (Example 12); assay type: cell-based; settings: Homo sapiens, 10 μM inhibitor, 1 hour at 37° C., collagen 1 μg/mL, light transmission 5 min, read-out: % reduction (platelet aggregation, light transmission)
# Description: Platelet-poor plasma (PPP) was obtained by centrifugation of the rest of the blood at 1400 g at 25° C. for 10 min. The PRP was adjusted with PPP to 2−3×10^8 platelets/mL suspensions. For the washed platelets, PRP was obtained by centrifugation at 250 g for 15 min, and platelets were sedimented at 1,000 g for 15 min, and then resuspended in washing buffer (103 mmol/L NaCl, 5 mmol/L KCl, 1 mmol/L MgCl2, 5 mmol/L glucose, 36 mmol/L citric acid) at pH 6.5 containing 3.5 mg/mL bovine serum albumin (Sigma). After sedimentation, the platelets were washed twice in this buffer and resuspended at 2−3×10^8 platelets/mL in the buffer composed of 5 mmol/L HEPES, 137 mmol/L NaCl, 2 mmol/L KCl, 1 mmol/L MgCl2, 12 mmol/L NaHCO3, 0.3 mmol/L NaH2PO4, 5.5 mmol/L glucose, pH 7.4, containing 3.5 mg/mL BSA (Saxena et al., 1989, Science 243:1596-1599).
# Washed platelet (1×10^8) were incubated with AR inhibitors for 1 hour at 37° C. For aggregometry studies, 0.5 μL of collagen solution (with a final concentration of 1 μg/mL) was added into 500 μL of washed platelet, and then the light transmission was measured for 5 min. […] The percentage of platelet aggregation, as measured in terms of light transmission, is summarized in FIG. 17, and representative tracings are depicted in FIG. 18.
# platelet COX-1 = molecular target: T1, platelet COX-1 (Homo sapiens, UniProt P23219); assay: Residual serum TXB2 generation in clotted whole blood (index of platelet COX-1 activity); assay type: cell-based
# T1 construct: in whole blood allowed to clot for 1 h at 37° C; (serum TXB2) which is an index of maximal capacity of platelets; endogenous in cells; host or cells: platelets in whole blood of diabetic patients and healthy subjects
# Description: Patients with the presence of type 2 diabetes (n=102) were recruited from the Hospital Policlinico G.B. Rossi (Verona, Italy) and San Pio da Pietrelcina Hospital (Vasto, Italy). Exclusion criteria included concurrent cancer, inflammatory disorder, immunological disorder, surgery or major trauma in the previous month or use of nonsteroidal anti-inflammatory drugs (NSAIDs) or corticosteroids in the previous month. Both the diabetic population and the severe cardiovascular disease population were chronically treated with low dose aspirin for at least one month (enteric coated aspirin 100 mg for at least 7 consecutive days). After recruitment the patients received a standard oral dose of 100 mg for seven days at 8.00 pm. […] The 10 healthy subjects recruited were from the staff of Hospital Policlinico G.B. Rossi (Verona Italy) with normal ECG and echocardiograms and no evidence of atherosclerosis by carotid artery sonography. The healthy subjects were all treated with aspirin 100 mg daily for 1 week.
# (serum TXB2) which is an index of maximal capacity of platelets to generate TXB2.
# In order to verify whether in these patients higher generation of platelet TXB2 was due to the phenomenon of aspirin resistance which implies that the aspirin target, i.e., COX-1, is less sensitive to inactivation by aspirin, residual generation of TXB2 was assessed after adding aspirin (50 μg/mL) in vitro.
# p38α MAPK = p38α MAPK phosphorylation in collagen-stimulated platelets (phospho-kinase array, Western blot); assay type: cell-based, human; settings: NG and HG; 1 μg/mL collagen 10 min; epalrestat 10 μmol/L, U73122, NAC 1 mmol/L, quercetin 10 μmol/L
# Description: Platelets were homogenized in the lysis buffer (25 mmol/L Tris HCl, pH 7.6, 150 mmol/L NaCl, 1% NP-40, 1% sodium deoxycholate, 0.1% SDS) with the addition of 0.1% protease inhibitor and 0.1% phosphatase inhibitor (Thermo Scientific). The supernatant was collected after centrifugation at 13,000 rpm for 15 min at 4° C. The samples are loaded in 4×SDS-Laemmli sample buffers and boiled for 10 min. Equal amounts of total extracts were subjected to SDS-PAGE. The proteins were transferred to nitrocellulose membrane and probed with the indicated antibodies, and the antigen-antibody complex was detected by enhanced chemiluminescence reagents (Thermo Scientific).
# (§1) Primary antibodies against the following proteins were diluted and used according to the manufacturer's instructions: AR (sc-17732, Santa Cruz Biotechnology), PKC α (sc-208, Santa Cruz Biotechnology) and its phosphorylated form (sc-136018, Thr638, Santa Cruz Biotechnology), PKC βII (NB110-57358, Novus Biologicals) and its phosphorylated form (NSB964, Thr641, Novus Biologicals), PKC δ (2058, Cell Signaling) and its phosphorylated form (9376, Ser643, Cell Signaling), PLC-γ1 (H00005335-A01, Novus Biologicals) and its phosphorylated form (07866, Tyr783, Millipore), PLC-γ2 (NB110-66669, Novus Biologicals) and its phosphorylated form (NB110-57424, Tyr1217, Novus Biologicals), p38α MAPK (9212, Cell Signaling) and its phosphorylated form (AF869, T180/Y182, R&D Systems), and TX receptor (NBP1-40198, Novus Biologicals). Secondary antibodies against rabbit and mouse IgG (Thermo Scientific) were diluted 1:5000 before use. The membrane was re-probed with antibodies against Na^+/K^+-ATPase (NB300-147, Novus Biologicals), a plasma membrane marker, and GAPDH (sc-20357, Santa Cruz Biotechnology), a cytoplasmic marker, for normalization.
# The human phospho-kinase array was performed according to the manufacturer's instruction (R&D Systems). […] The signals for the amount of phosphorylated proteins bound were measured by the chemiluminescent detection method.
# [3] = system: thromboxane receptor (TP); assay: Surface expression of thromboxane receptor in collagen-stimulated platelets; assay type: cell-based, human; settings: HG; 1 μg/mL collagen; epalrestat 10 μmol/L, NAC, apocynin
# Description: as §1
# Platelets were sedimented by centrifugation at 2,500 g for 5 min. The membrane and cytosolic fractions of total extracts were separated using the subcellular protein fractionation kit (Thermo Scientific). […]
# human platelets [4] = assay: Oxidative stress and superoxide level in collagen-stimulated platelets; assay type: cell-based; settings: NG and HG, epalrestat 10 μmol/L, 10 mmol/L NAC, 100 μmol/L apocynin
# Description: The oxidative stress and superoxide level was measured by a commercial kit according to the manufacturer's instruction (Total ROS/Superoxide Detection Kit, Enzo Life Sciences). Platelets were sedimented by centrifugation at 400 g for 5 min, and then washed. The washed platelets were incubated with 1 μmol/L ROS/Superoxide detection mix for 60 min at 37° C. in the presence or absence of 1 μg/mL collagen.
# aldose reductase = aldose reductase (Homo sapiens, UniProt P15121); settings: aldose reductase inhibitor IC50; no method given; cited from earlier work
# T1 sequence (P23219 24-599): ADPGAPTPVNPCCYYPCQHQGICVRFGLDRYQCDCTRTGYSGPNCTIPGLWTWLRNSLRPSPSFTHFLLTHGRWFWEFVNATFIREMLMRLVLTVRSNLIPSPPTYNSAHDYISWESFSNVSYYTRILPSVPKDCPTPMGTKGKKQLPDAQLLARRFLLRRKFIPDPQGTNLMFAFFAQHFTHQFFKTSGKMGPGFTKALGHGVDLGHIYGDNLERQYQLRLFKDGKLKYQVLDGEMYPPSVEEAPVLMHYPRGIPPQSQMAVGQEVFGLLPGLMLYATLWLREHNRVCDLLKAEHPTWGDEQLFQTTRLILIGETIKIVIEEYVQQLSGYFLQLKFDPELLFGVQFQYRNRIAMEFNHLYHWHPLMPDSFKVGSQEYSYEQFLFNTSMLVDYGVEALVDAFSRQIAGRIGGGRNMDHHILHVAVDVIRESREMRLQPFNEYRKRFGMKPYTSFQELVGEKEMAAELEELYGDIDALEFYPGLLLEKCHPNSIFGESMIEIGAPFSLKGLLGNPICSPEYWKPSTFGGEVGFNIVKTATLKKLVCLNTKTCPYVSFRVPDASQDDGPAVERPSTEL
smiles,measurement,setting,value
"O=C(O)CCC/C=C\C[C@@H]1[C@H](CNNC(=O)Nc2ccccc2)[C@H]2CC[C@@H]1O2 [SQ29548, 1S-[1-alpha,2-beta-(5Z),3-beta,4-alpha]-7-[3-[[2-[(phenylamino)carbonyl]hydrazino]methyl]-7-oxabicyclo[2.2.1]hept-2-yl]-5-heptenoic acid]",collagen-induced TXB2 (TXA2) release (signalling inhibitors),human platelets [1],attenuated collagen-induced TXA2 release
same,collagen-induced platelet aggregation (signalling inhibitors),human platelets [2],attenuated the collagen-induced platelet aggregation
"O=C1NC(=O)[C@@]2(CCOc3ccc(F)cc32)N1 [IDD 60, (4S)-6-Fluoro-2,3-dihydro-2′H,5′H-spiro[chromene-4,4′-imidazolidine]-2′,5′-dione]",inhibition at 10 µM,washed platelet,67%
"O=C(O)Cn1cc(Cc2nc3c(F)c(F)cc(F)c3s2)c2ccccc21 [IDD 676, [3-(4,5,7-Trifluorobenzothiazol-2-ylmethyl)indol-1-yl]acetic acid]",inhibition at 10 µM,washed platelet,54%
"COc1ccc2c(C(=S)N(C)CC(=O)O)cccc2c1C(F)(F)F [IDD 63, N-{[6-methoxy-5-(trifluoromethyl)-1-naphthyl]carbothioyl}-N-methylglycine]",inhibition at 10 µM,washed platelet,78%
"O=C(O)Cn1c(=O)n(Cc2ccc(Br)cc2F)c(=O)c2ccc(Cl)cc21 [IDD 148, 3-(2-Fluoro-4-bromobenzyl)-7-chloro-2,4(1H,3H)-dioxoquinazoline-1-acetic acid]",inhibition at 10 µM,washed platelet,61%
"CC(=O)Oc1ccccc1C(=O)O [aspirin, Acetylsalicylic Acid]",diabetic patients with residual TXB2 levels higher than 4 ng/mL with aspirin in vitro,platelet COX-1; aspirin 50 μg/mL added in vitro,2%
same,residual TXB2 generation after adding aspirin in vitro,"platelet COX-1; aspirin 50 μg/mL in vitro, diabetic patients and healthy subjects on aspirin 100 mg/day, blood clotted 1 h at 37° C.",further significant reduction
same,diabetic patients with residual serum TXB2 higher than 4 ng/mL,"platelet COX-1; ex vivo, 12 h after the last dose of aspirin 100 mg/day",12%
"O=C1CC2(C(=O)N1)C(=O)N(Cc1ccc(Br)cc1F)C(=O)c1ccc(F)cc12 (racemic) [IDD 62, (±)-2-(4-Bromo-2-fluorobenzyl)-6-fluorospiro[1,2,3,4-tetrahydroisoquinoline-4,3′-pyrrolidine]-1,2′,3,5′-tetraone]",inhibition at 10 µM,washed platelet,59%
"CC(=O)N[C@@H](CS)C(=O)O [NAC, N-acetyl-cysteine]",collagen-induced platelet aggregation (signalling inhibitors),human platelets [2],attenuated the collagen-induced platelet aggregation to a similar extent as ARI
same,collagen-induced phosphorylation of p38α MAPK (Western blot),p38α MAPK,significantly reduced
same,surface expression of TX receptor (TP),[3],significantly attenuated
same,level of oxidative stress and superoxide,human platelets [4],significantly reduced
"O=C(O)CN1C(=O)C(=O)N(Cc2cccc([N+](=O)[O-])c2)C1=O [IDD 314, 3-(3-nitrobenzyl)-2,4,5-trioxoimidazolidine-1-acetic acid]",inhibition at 10 µM,washed platelet,52%
same,IC50,aldose reductase,718 nM
"O=C(O)Cc1nn(Cc2nc3cc(C(F)(F)F)ccc3s2)c(=O)c2ccccc12 [IDD 65, 3,4-Dihydro-4-oxo-3-[[5-(trifluoromethyl)-2-benzothiazolyl]methyl]-1-phthalazineacetic acid]",inhibition at 10 µM,washed platelet,50%
"CCCCCOc1ccc(C2SC(=O)NC2=O)cc1OCC (centres unmarked) [IDD 73, 5-[3-Ethoxy-4-(pentyloxy)phenyl]-2,4-thiazolidinedione]",inhibition at 10 µM,washed platelet,54%
same,IC50,aldose reductase,294 nM
O=c1c(O)c(-c2ccc(O)c(O)c2)oc2cc(O)cc(O)c12 [quercetin],collagen-induced platelet aggregation (signalling inhibitors),human platelets [2],reduced platelet aggregation
same,collagen-induced phosphorylation of p38α MAPK (Western blot),p38α MAPK,attenuated
COc1cc(C(C)=O)ccc1O [apocynin],collagen-induced platelet aggregation (signalling inhibitors),human platelets [2],attenuated the collagen-induced platelet aggregation to a similar extent as ARI
same,surface expression of TX receptor (TP),[3],significantly attenuated
same,level of oxidative stress and superoxide,human platelets [4],significantly reduced
COc1ccc2c(c1)CC[C@@H]1[C@@H]2CC[C@]2(C)[C@@H](NCCCCCCN3C(=O)C=CC3=O)CC[C@@H]12 [U73122],collagen-induced TXB2 (TXA2) release (signalling inhibitors),human platelets [1],attenuated the collagen-induced TXB2 release
same,collagen-induced platelet aggregation (signalling inhibitors),human platelets [2],reduced platelet aggregation
same,collagen-induced phosphorylation of p38α MAPK (Western blot),p38α MAPK,significantly reduced
"COc1nccc(-c2c(-c3ccc(F)cc3)ncn2[C@H]2CC[C@H](O)CC2)n1 [SB239063, trans-4-[4-(4-fluorophenyl)-5-(2-methoxy-4-pyrimidinyl)-1H-imidazol-1-yl]cyclohexanol]",collagen-induced TXB2 (TXA2) release (signalling inhibitors),human platelets [1],attenuated the collagen-induced TXB2 release
same,collagen-induced platelet aggregation (signalling inhibitors),human platelets [2],reduced platelet aggregation

# Reference: patent US9132191B2, “Compositions and methods of preventing or ameliorating abnormal thrombus formation and cardiovascular disease” (Yale University, priority 2011, dated 2015)
